Test results taken from PMC6757289, “Design and Characterization of SGK3-PROTAC1, an Isoform Specific SGK3 Kinase PROTAC Degrader” (ACS Chemical Biology, 2019).
Where two headings read alike, the source gives them in different places.

What was measured:
Assay in all cases: kinase profiling panel
Type in all cases: biochemical
Conditions in all cases: read-out: % Activity Remaining
BRK = BRK (Homo sapiens, UniProt Q13882)
From the text: (§1) Protein kinase profiling against a Dundee panel of 140 protein kinases was undertaken at the International Centre for Protein Kinase Profiling. The result for each kinase was presented as a mean kinase activity of the reaction taken in triplicate relative to a control sample treated with DMSO. Assay conditions and abbreviations are available at http://www.kinase-screen.mrc.ac.uk.

PRK2 = PRK2 (Homo sapiens, UniProt Q16513)
From the text: as §1

PKC zeta = target: T1, PKC zeta (Homo sapiens, UniProt Q05513)
T1 sequence (Q05513 1-592): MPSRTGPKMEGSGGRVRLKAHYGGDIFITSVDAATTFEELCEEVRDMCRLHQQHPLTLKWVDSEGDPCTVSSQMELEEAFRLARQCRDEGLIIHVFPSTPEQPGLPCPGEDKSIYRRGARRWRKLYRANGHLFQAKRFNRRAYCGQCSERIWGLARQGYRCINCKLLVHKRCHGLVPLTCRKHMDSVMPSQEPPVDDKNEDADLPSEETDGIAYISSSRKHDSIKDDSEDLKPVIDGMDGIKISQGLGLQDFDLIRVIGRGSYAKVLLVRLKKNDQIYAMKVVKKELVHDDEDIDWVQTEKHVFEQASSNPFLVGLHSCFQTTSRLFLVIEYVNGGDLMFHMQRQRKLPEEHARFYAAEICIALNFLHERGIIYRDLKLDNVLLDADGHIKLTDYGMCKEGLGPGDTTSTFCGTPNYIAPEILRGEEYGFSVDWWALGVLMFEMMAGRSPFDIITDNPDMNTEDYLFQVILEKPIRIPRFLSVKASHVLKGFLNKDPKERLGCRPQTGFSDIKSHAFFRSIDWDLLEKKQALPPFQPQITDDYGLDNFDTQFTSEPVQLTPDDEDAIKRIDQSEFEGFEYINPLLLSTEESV
From the text: as §1

SRPK1 = SRPK1 (Homo sapiens, UniProt Q96SB4)
From the text: as §1

EPH-A4 = EPH-A4 (Homo sapiens, UniProt P54764)
From the text: as §1

PIM3 = PIM3 (Homo sapiens, UniProt Q86V86)
From the text: as §1

ERK5 = ERK5 (Homo sapiens, UniProt Q13164)
From the text: as §1

SYK = SYK (Homo sapiens, UniProt P43405)
From the text: as §1

NEK6 = NEK6 (Homo sapiens, UniProt Q9HC98)
From the text: as §1

MNK2 = MNK2 (Homo sapiens, UniProt Q9HBH9)
From the text: as §1

NUAK1 = target: T2, NUAK1 (Homo sapiens, UniProt O60285)
T2 sequence (O60285 1-661): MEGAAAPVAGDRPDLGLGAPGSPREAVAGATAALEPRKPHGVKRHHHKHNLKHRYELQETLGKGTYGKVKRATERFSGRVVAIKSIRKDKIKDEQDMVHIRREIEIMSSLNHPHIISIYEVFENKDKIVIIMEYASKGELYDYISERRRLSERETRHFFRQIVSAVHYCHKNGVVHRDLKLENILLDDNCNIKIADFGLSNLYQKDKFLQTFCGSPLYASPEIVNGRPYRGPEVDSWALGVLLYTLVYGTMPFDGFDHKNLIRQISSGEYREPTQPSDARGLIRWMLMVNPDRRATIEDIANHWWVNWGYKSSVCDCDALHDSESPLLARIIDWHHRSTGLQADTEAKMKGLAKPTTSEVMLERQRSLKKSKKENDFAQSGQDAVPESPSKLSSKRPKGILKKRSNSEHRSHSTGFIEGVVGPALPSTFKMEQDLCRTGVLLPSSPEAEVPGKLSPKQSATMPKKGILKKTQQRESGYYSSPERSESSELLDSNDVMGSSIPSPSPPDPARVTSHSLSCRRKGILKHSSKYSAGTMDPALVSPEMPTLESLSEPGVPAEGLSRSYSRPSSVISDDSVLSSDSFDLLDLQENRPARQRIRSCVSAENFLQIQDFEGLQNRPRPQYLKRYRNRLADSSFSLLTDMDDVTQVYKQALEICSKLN
From the text: as §1

MAPKAP-K2 = MAPKAP-K2 (Homo sapiens, UniProt P49137)
From the text: as §1

JNK3 = JNK3 (Homo sapiens, UniProt P53779)
From the text: as §1

MNK2, sequence (Q9HBH9 whole entry): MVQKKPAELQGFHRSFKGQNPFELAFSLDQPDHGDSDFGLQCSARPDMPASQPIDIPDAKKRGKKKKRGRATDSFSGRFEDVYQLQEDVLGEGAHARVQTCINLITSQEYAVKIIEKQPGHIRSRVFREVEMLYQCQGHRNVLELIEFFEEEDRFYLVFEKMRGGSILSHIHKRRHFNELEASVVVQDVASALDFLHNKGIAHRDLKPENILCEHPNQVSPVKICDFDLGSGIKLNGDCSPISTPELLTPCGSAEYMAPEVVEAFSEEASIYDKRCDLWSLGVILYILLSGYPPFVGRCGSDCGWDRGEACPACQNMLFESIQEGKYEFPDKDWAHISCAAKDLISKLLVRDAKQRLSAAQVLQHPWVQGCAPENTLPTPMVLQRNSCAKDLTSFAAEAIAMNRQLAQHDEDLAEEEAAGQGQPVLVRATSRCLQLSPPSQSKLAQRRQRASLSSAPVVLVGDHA
ERK5, sequence (Q13164 whole entry): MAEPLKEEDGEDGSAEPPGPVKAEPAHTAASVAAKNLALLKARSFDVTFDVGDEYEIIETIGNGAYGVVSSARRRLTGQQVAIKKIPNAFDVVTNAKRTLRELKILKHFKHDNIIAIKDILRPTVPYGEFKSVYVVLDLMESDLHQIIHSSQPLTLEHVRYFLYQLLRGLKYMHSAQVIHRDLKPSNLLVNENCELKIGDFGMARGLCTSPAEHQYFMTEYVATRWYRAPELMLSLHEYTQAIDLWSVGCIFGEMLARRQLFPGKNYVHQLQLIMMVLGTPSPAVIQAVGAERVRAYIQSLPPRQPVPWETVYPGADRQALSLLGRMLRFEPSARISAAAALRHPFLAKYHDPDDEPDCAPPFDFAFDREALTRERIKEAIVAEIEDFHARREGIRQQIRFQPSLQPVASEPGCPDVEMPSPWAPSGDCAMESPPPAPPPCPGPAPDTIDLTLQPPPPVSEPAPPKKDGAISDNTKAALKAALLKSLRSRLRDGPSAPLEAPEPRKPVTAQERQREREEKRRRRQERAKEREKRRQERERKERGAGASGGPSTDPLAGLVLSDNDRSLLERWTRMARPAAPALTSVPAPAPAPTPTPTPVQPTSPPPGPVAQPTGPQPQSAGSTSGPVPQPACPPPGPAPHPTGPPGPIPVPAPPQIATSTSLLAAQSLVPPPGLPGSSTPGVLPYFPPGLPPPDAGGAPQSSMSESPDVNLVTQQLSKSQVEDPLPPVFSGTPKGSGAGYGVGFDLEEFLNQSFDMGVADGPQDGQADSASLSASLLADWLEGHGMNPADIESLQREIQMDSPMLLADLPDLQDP
EPH-A4, sequence (P54764 20-986): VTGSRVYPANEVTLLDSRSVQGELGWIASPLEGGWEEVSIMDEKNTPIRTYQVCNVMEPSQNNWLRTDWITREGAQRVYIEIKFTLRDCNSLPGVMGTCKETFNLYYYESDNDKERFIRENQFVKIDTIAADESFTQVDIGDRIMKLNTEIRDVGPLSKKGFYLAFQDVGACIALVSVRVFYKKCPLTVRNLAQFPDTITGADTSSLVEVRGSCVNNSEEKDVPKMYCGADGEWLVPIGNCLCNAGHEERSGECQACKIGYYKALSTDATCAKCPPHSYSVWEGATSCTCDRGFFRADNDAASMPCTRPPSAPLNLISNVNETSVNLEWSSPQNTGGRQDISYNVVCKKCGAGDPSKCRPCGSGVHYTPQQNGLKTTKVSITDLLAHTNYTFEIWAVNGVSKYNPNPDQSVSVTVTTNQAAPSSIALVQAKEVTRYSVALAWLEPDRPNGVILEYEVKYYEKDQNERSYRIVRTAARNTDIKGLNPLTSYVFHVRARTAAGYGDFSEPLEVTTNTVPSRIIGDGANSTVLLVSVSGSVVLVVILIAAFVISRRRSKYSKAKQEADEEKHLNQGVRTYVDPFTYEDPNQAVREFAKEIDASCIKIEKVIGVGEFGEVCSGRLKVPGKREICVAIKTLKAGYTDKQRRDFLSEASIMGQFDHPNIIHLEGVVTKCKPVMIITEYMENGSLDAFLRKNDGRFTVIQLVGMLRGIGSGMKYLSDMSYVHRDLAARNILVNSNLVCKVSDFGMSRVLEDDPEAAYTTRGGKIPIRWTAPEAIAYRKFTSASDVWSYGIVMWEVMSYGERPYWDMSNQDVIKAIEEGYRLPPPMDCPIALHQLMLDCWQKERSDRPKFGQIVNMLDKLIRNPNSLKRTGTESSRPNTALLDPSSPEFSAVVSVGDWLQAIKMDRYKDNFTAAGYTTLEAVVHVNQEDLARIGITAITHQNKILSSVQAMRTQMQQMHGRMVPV
PRK2, sequence (Q16513 whole entry): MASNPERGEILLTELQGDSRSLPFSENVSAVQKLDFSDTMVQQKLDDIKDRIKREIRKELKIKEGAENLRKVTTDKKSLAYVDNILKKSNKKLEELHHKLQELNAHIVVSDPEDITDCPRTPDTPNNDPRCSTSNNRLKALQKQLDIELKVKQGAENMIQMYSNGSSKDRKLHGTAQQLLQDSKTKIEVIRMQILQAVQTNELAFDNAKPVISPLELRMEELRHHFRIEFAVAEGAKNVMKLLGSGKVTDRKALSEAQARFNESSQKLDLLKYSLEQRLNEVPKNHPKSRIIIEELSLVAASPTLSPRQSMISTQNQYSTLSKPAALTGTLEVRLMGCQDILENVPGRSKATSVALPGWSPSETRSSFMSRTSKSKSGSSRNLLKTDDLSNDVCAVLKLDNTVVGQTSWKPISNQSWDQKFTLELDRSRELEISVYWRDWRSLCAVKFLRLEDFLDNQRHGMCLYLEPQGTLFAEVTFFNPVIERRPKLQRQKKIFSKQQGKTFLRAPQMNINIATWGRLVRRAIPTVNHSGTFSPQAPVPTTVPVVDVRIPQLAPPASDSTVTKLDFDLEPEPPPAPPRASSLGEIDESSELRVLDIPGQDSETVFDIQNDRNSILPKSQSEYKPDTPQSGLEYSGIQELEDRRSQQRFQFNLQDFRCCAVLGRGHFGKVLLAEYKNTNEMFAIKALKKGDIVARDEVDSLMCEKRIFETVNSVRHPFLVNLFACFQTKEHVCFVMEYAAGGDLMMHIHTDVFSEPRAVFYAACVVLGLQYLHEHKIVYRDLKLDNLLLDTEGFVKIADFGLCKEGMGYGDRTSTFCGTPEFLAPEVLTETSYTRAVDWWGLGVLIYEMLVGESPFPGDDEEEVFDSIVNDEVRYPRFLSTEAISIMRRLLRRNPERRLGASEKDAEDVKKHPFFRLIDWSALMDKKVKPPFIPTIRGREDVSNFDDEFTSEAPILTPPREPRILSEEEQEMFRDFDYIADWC
BRK, sequence (Q13882 whole entry): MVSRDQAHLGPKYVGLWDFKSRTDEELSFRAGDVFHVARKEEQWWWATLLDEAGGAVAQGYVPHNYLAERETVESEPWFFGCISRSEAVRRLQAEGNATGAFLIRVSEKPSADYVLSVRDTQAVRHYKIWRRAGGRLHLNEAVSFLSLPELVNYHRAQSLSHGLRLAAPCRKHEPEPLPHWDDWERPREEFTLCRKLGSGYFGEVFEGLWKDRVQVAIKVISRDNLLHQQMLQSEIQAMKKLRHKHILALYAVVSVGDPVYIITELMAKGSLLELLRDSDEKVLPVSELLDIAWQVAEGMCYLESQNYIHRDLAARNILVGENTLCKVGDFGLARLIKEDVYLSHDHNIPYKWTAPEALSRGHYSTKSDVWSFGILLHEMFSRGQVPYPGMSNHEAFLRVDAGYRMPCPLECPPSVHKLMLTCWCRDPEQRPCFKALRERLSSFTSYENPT
MAPKAP-K2, sequence (P49137 whole entry): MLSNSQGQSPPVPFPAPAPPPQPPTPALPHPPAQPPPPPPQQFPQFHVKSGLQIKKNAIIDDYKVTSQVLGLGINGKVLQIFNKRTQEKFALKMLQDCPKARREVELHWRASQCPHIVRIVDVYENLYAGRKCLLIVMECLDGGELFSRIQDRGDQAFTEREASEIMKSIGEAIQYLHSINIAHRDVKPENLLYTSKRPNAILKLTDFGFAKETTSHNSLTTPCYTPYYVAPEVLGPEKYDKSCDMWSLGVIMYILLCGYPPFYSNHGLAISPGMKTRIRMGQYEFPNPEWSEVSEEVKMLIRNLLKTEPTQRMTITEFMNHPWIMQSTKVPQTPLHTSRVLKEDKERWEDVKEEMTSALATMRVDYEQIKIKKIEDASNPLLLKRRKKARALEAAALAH
JNK3, sequence (P53779 whole entry): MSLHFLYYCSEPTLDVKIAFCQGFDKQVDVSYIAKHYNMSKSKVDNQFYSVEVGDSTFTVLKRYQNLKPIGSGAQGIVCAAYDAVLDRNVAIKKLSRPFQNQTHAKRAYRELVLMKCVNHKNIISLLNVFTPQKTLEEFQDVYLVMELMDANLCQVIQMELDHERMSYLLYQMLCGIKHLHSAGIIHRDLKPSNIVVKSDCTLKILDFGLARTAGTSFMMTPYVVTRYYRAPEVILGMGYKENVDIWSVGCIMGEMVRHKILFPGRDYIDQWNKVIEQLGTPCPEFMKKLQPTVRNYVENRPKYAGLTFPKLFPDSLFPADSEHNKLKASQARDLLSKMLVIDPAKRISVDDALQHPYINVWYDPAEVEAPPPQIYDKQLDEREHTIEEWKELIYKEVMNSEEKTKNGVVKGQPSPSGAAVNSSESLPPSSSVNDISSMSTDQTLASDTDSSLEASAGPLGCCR

| SMILES | remaining activity at 1 µM (BRK) [%] | remaining activity at 1 µM (PRK2) [%] | remaining activity at 1 µM (PKC zeta) [%] | remaining activity at 1 µM (SRPK1) [%] | remaining activity at 1 µM (EPH-A4) [%] | remaining activity at 1 µM (PIM3) [%] | remaining activity at 1 µM (ERK5) [%] | remaining activity at 1 µM (SYK) [%] | remaining activity at 1 µM (NEK6) [%] | remaining activity at 1 µM (MNK2) [%] | remaining activity at 1 µM (NUAK1) [%] | remaining activity at 1 µM (MAPKAP-K2) [%] | remaining activity at 1 µM (JNK3) [%] | remaining activity at 1 µM (BRK; 1 µM) [%] | remaining activity at 1 µM (PRK2; 1 µM) [%] | remaining activity at 1 µM (PKC zeta; 1 µM) [%] | remaining activity at 1 µM (SRPK1; 1 µM) [%] | remaining activity at 1 µM (EPH-A4; 1 µM) [%] | remaining activity at 1 µM (PIM3; 1 µM) [%] | remaining activity at 1 µM (ERK5; 1 µM) [%] | further results |
| --- | --- | --- | --- | --- | --- | --- | --- | --- | --- | --- | --- | --- | --- | --- | --- | --- | --- | --- | --- | --- | --- |
| COc1ccc(Cl)c(S(=O)(=O)Nc2ccc(-c3nc(OC[C@H]4CNCCO4)c4c(C)n[nH]c4n3)cc2)c1 [290-R, reference compound] | 113 | 76 | 110 | 94 | 95 | 105 | 84 | 88 | 88 | 119 | 91 | 87 | 104 |  |  |  |  |  |  |  |  |
| Cc1ccc(F)c(S(=O)(=O)Nc2ccc(-c3nc(OC[C@H]4CNCCO4)c4cn[nH]c4n3)cc2)c1 [308-R, reference compound] | 86 | 82 | 72 | 119 | 53 | 76 | 73 | 100 | 91 | 78 | 103 | 83 | 112 |  |  |  |  |  |  |  |  |
| Cc1ccc(F)c(S(=O)(=O)Nc2ccc(-c3nc(OC[C@H]4CN(CCCCCCOCCOCCOCC(=O)N[C@H](C(=O)N5C[C@H](O)C[C@H]5C(=O)NCc5ccc(-c6scnc6C)cc5)C(C)(C)C)CCO4)c4cn[nH]c4n3)cc2)c1 [SGK3-PROTAC1] |  |  |  |  |  |  |  |  |  |  |  |  |  | 87 | 105 | 96 | 96 | 106 | 88 | 102 | remaining activity at 1 µM (SYK; 1 µM): 116%; remaining activity at 1 µM (NEK6; 1 µM): 106%; remaining activity at 1 µM (MNK2; 1 µM): 122%; remaining activity at 1 µM (NUAK1; 1 µM): 98%; remaining activity at 1 µM (MAPKAP-K2; 1 µM): 86%; remaining activity at 1 µM (JNK3; 1 µM): 92% |
| Cc1ccc(F)c(S(=O)(=O)Nc2ccc(-c3nc(OC[C@H]4CN(CCCCCCOCCOCCOCC(=O)N[C@H](C(=O)N5C[C@@H](O)C[C@H]5C(=O)NCc5ccc(-c6scnc6C)cc5)C(C)(C)C)CCO4)c4cn[nH]c4n3)cc2)c1 [cisSGK3-PROTAC1] |  |  |  |  |  |  |  |  |  |  |  |  |  | 105 | 101 | 110 | 104 | 89 | 89 | 108 | remaining activity at 1 µM (SYK; 1 µM): 103%; remaining activity at 1 µM (NEK6; 1 µM): 111%; remaining activity at 1 µM (MNK2; 1 µM): 122%; remaining activity at 1 µM (NUAK1; 1 µM): 90%; remaining activity at 1 µM (MAPKAP-K2; 1 µM): 92%; remaining activity at 1 µM (JNK3; 1 µM): 83% |
